From US10947196B2, “Beta adrenergic agonist and methods of using the same” (CURASEN THERAPEUTICS, INC., priority 2019, dated 2021)
Like-named read-outs stand apart in the source and are kept apart here.

Columns and labels:
Type in all cases: cell-based
[1] = target: β2 adrenergic receptor (Homo sapiens (Human), UniProt P07550); experiment: cAMP Gs dynamic HTRF assay, β2 expressing CHO cells; settings: B2-AR
Method in brief: (§1)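 Intracellular cAMP quantified by Eu-donor/d2-acceptor HTRF after 30 min compound exposure at 37° C in stimulation buffer with IBMX. Concentrations ran 10 μM top, 5-fold steps, 10 points. Cell lines: 1321N1 astrocytoma and CHO expressing β1 or β2; EC50 via four-parameter fit, relative efficacy against isoproterenol.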

[2] = target: β1-adrenergic receptor (Homo sapiens (Human), UniProt P08588); experiment: cAMP Gs dynamic HTRF assay, β1 expressing CHO cells; settings: B1-AR
Sequence of β1-adrenergic receptor (P08588 whole entry, species assumed): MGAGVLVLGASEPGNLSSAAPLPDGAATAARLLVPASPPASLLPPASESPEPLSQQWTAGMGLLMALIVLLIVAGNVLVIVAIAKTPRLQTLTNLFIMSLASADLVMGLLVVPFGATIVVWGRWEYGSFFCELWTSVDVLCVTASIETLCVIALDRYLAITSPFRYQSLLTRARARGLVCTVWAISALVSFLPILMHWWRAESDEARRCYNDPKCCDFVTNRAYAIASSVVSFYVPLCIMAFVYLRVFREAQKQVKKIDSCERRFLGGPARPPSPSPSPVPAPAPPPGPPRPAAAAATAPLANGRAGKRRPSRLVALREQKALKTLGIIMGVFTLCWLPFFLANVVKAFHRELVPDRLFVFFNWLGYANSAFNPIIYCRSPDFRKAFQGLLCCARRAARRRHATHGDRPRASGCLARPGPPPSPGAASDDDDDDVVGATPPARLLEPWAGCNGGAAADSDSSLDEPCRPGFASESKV
Method in brief: as §1

[3] = target: B3-AR (Homo sapiens (Human), UniProt P13945); experiment: cAMP potency assay, B3-AR expressing CHO-K1 cells
Sequence of B3-AR (P13945 whole entry, species assumed): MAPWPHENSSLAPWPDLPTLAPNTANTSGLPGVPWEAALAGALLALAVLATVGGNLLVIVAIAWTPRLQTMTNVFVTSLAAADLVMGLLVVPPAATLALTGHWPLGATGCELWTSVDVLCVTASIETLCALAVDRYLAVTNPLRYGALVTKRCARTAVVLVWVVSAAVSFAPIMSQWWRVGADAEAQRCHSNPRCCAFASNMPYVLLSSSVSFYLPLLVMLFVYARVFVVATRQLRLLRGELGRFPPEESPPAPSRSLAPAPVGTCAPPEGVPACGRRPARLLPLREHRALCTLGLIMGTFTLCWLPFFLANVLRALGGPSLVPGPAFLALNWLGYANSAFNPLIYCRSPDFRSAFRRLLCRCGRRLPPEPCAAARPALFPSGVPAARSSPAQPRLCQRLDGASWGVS

[4] = target: β2 adrenergic receptors in human astrocytoma cells (1321N1) (Homo sapiens (Human), UniProt P07550); experiment: cAMP HTRF assay in human astrocytoma cells (1321N1); settings: Endogenous receptor, 1321N1 cells
Sequence of β2 adrenergic receptors in human astrocytoma cells (1321N1) (P07550 whole entry): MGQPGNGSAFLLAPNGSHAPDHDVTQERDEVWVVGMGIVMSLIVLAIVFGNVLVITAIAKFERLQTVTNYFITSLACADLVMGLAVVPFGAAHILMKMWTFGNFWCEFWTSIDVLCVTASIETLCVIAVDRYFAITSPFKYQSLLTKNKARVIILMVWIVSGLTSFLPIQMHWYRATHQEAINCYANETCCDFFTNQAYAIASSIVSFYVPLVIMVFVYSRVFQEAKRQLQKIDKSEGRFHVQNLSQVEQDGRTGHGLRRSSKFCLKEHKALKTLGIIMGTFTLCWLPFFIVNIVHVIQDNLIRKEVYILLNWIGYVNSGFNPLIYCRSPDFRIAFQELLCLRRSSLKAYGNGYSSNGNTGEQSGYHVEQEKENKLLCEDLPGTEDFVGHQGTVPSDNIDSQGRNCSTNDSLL
Experimental: cAMP homogeneous time-resolved fluorescence (HTRF). Compound efficacy was determined using the cAMP Gs dynamic HTRF assay (Cisbio, catalog #62AM4PEC) largely following the manufacturer's instructions, also detailed below.
Compound preparation. […] Standard serial dilution curves were 10-point, 5-fold dilutions starting from a highest concentration of 10 μM. […] Assay plates were centrifuged at 500×g for 10 seconds. Compounds and IBMX were prepared at 2× final dose to compensate for addition of cells.
Cell preparation. 1× stimulation buffer, washing PBS (Dulbecco's phosphate-buffered saline, −Mg −Ca; Caisson Labs, catalog #PBL01), assay PBS (Dulbecco's phosphate-buffered saline, +Mg, +Ca; Caisson Labs, catalog #PBL02) and Versene (0.02% EDTA disodium salt solution in PBS without calcium or magnesium; Caisson Labs, catalog #EDL01) were pre-warmed to 37° C. Cells expressing beta-adrenergic receptor were washed in washing PBS to remove growth medium and then released from the surface by incubating with Versene for 5-10 minutes at 37° C. Cells were harvested using assay PBS, counted manually by hemocytometer or by an automated cell counter, pelleted by centrifugation (200×g, 5 minutes) and resuspended in 37° C. 1× stimulation buffer to a final density of 1.5×10^6 cells/mL. 5 μL of the suspended cell solution (7500 cell total) were added to all wells of the 384 well assay plate, the assay plate was covered with an Axygen® plate seal (Corning PCR-SP) and incubated in a humidified 37° C. environment supplemented with 5% CO2 for 30 minutes.
HTRF reagent addition, reading and data analysis. After 30 minutes of cell stimulation with test compound, the assay plates were centrifuged at 500×g for 10 seconds, and incubation was stopped with the addition of 5 μL cAMP-D2 acceptor, diluted 1:21 in detection and lysis buffer 2 (Cisbio 62CL2FDF) was added to all cells. Subsequently, 5 μL Anti-cAMP-Eu Donor, diluted 1:21 in detection and lysis buffer 2, was added to cells. Plates were sealed and reactions gently ‘vortexed’ at 900 rpm on a Heidolph Titramax 1000 for at least 30 minutes at room temperature. Plates were centrifuged again at 500×g for 10 seconds, and HTRF was measured using a Tecan Spark plate reader at 50 flashes per well. […] Potency estimates (EC50) were derived from the four-parameter nonlinear regression of the concentration-effect curve and an estimate of relative efficacy was determined by comparing the magnitude of the test compound HTRF signal window (min−max dose) with the signal window of the full agonist control, isoproterenol.

[5] = CHO-K1 (HitHunter), read-out: Average pEC50 [Receptor subtype: B2-AR, Cell type: CHO-K1 (HitHunter)] (converted)
[6] = CHO-K cells, read-out: Average EC50 [Receptor subtype: B2-AR, Cell type: CHO-K]
[7] = CHO-K cells, read-out: Average EC50 [Receptor subtype: B1-AR, Cell type: CHO-K]
[8] = read-out: Average EC50 [Receptor subtype: B3-AR, Cell type: CHO-K1]
[9] = read-out: Average pEC50 [Receptor subtype: B3-AR, Cell type: CHO-K1] (converted)
[10] = read-out: Average EC50 [Receptor subtype: Endogenous, Cell type: 1321N1]
[11] = CHO-K1 (HitHunter), read-out: Average pEC50 [Receptor subtype: B1-AR, Cell type: CHO-K1 (HitHunter)] (converted)
[12] = read-out: Average pEC50 [Receptor subtype: Endogenous, Cell type: 1321N1] (converted)

Sequence of β2 adrenergic receptor (P07550 whole entry, species assumed): as the sequence (P07550 whole entry) above

Compound | EC50 [1, 5] | EC50 [1, 6] | Average pEC50 [Receptor subtype: B1-AR; Cell type: CHO-K1 (HitHunter)] ([2]; CHO-K1 (HitHunter)) | EC50 [2, 7] | EC50 [3, 8] | EC50 [3, 9] | Average pEC50 [Receptor subtype: Endogenous; Cell type: 1321N1] [4] | EC50 [4, 10] | EC50 [2, 11] | EC50 [4, 12] | Average pEC50 [Receptor subtype: B3-AR; Cell type: CHO-K1] [3]
CC(C)(C)NC[C@H](O)c1cccnc1C1CCCC1 [Compound 03-53] | 10 to 100 nM | 10 to 100 nM | D (D < 6) | > 1000 nM | > 1000 nM | > 1000 nM | C (C = <7-6) | 100 to 1000 nM | – | – | –
Cc1ccc([C@H](O)CNC(C)(C)C)nc1C(F)(F)F [Compound 03-168] | 10 to 100 nM | 10 to 100 nM | – | 10 to 100 nM | – | 100 to 1000 nM | – | – | 10 to 100 nM | 100 to 1000 nM | –
COc1ncccc1[C@@H](O)CNC(C)(C)C [Compound 03-59] | < 10 nM | < 10 nM | – | < 10 nM | 100 to 1000 nM | – | A (A > 8) | < 10 nM | < 10 nM | – | C (C = <7-6)
CC(C)(C)NC[C@H](O)c1ccc(C(F)(F)F)cn1 [Compound 03-126] | 10 to 100 nM | 10 to 100 nM | – | 10 to 100 nM | – | 100 to 1000 nM | – | – | 10 to 100 nM | 10 to 100 nM | –
CC(C)(C)NC[C@H](O)c1ccnc(C(F)(F)F)n1 [Compound 03-45] | 100 to 1000 nM | 100 to 1000 nM | – | 10 to 100 nM | < 10 nM | – | – | < 10 nM | 10 to 100 nM | – | –
CCOc1ncccc1[C@@H](O)CNC(C)(C)C [Compound 03-58] | 10 to 100 nM | 10 to 100 nM | – | 10 to 100 nM | > 1000 nM | – | B (B = 8-7) | 10 to 100 nM | 10 to 100 nM | – | D (D < 6)
CC(C)(C)NCC(O)c1cncc(Cl)n1 (centres unmarked) [Compound 03-219] | 100 to 1000 nM | – | – | – | – | 100 to 1000 nM | – | – | 100 to 1000 nM | > 1000 nM | –
[2H]C([2H])([2H])C(NCC(O)c1cccc(C(F)(F)F)n1)(C([2H])([2H])[2H])C([2H])([2H])[2H] (centres unmarked) [Compound 03-49] | – | 100 to 1000 nM | – | > 1000 nM | > 1000 nM | – | – | > 1000 nM | > 1000 nM | – | –
O[C@@H](CNC1Cc2ccccc2C1)c1cccc(C(F)(F)F)n1 [Compound 03-21] | 10 to 100 nM | 10 to 100 nM | – | 100 to 1000 nM | – | > 1000 nM | – | – | 100 to 1000 nM | 10 to 100 nM | –
COc1ccc(CC(C)(C)NC[C@H](O)c2cccc(C(F)(F)F)n2)cc1 [Compound 03-182] | < 10 nM | < 10 nM | – | 10 to 100 nM | – | 100 to 1000 nM | – | – | 10 to 100 nM | < 10 nM | –
Cc1ccc([C@H](O)CNC(C)(C)C)nc1C#N [Compound 03-9] | < 10 nM | < 10 nM | – | 10 to 100 nM | – | 100 to 1000 nM | – | – | 10 to 100 nM | 10 to 100 nM | –
CC(C)(C)NC[C@H](O)c1cccc(C(C)(F)F)n1 [Compound 03-169] | < 10 nM | < 10 nM | B (B = 8-7) | 10 to 100 nM | – | > 1000 nM | – | – | – | 100 to 1000 nM | –
CC(C)Oc1cccc([C@@H](O)CNC(C)(C)C)n1 [Compound 03-179] | < 10 nM | < 10 nM | C (C = <7-6) | 100 to 1000 nM | – | 100 to 1000 nM | – | – | – | < 10 nM | –
CC1(NC[C@H](O)c2cccc(C(F)(F)F)n2)CCC1 [Compound 03-11] | < 10 nM | < 10 nM | – | 10 to 100 nM | – | > 1000 nM | – | – | 10 to 100 nM | 100 to 1000 nM | –
Cc1ccc([C@@H](O)CNC(C)(C)C)nc1C(F)(F)F [Compound 03-167] | < 10 nM | < 10 nM | – | < 10 nM | – | > 1000 nM | – | – | < 10 nM | < 10 nM | –
CC(C)c1cccc([C@@H](O)CNC(C)(C)C)n1 [Compound 03-175] | < 10 nM | < 10 nM | – | 10 to 100 nM | – | > 1000 nM | – | – | 10 to 100 nM | < 10 nM | –
O[C@@H](CNC1CCC1)c1cccc(C(F)(F)F)n1 [Compound 03-33] | < 10 nM | < 10 nM | A (A > 8) | < 10 nM | – | > 1000 nM | – | – | – | 10 to 100 nM | –
CC(C)(COc1ccccc1)NC[C@H](O)c1cccc(C(F)(F)F)n1 [Compound 03-184] | 10 to 100 nM | 10 to 100 nM | B (B = 8-7) | 10 to 100 nM | – | 100 to 1000 nM | – | – | – | 10 to 100 nM | –
CC(C)(C)NC[C@H](O)c1cccc(C(F)F)n1 [Compound 03-44] | 10 to 100 nM | 10 to 100 nM | – | 10 to 100 nM | > 1000 nM | – | C (C = <7-6) | 100 to 1000 nM | 10 to 100 nM | – | D (D < 6)
Cc1cc([C@@H](O)CNC(C)(C)C)nc(C(F)(F)F)c1 [Compound 03-19] | 10 to 100 nM | 10 to 100 nM | – | 100 to 1000 nM | – | > 1000 nM | – | – | 100 to 1000 nM | 100 to 1000 nM | –
CC(C)(C)NC[C@H](O)c1cccc(OC(F)(F)F)n1 [Compound 03-37] | < 10 nM | < 10 nM | – | 10 to 100 nM | – | 100 to 1000 nM | – | – | 10 to 100 nM | < 10 nM | –
